From the OPERA property sets (Mansouri et al. 2018)
≈ marks a conversion by molar mass, not a printed value.

conditions: not given

In order of rising logP:
1. c1ccc2c(c1)Oc1ccccc1O2  4.3
2. Clc1cccc2c1Oc1ccccc1O2  4.75
3. Clc1ccc2c(c1)Oc1ccccc1O2  5
4. Clc1ccc2c(c1)Oc1ccc(Cl)cc1O2  5.75
5. Clc1cc(Cl)c2c(c1Cl)Oc1ccccc1O2  6.35
6. Clc1c(Cl)c(Cl)c2c(c1Cl)Oc1ccccc1O2  6.6
7. Clc1cc2c(cc1Cl)Oc1cc(Cl)c(Cl)cc1O2  6.8
8. Clc1ccc2c(c1)Oc1c(Cl)c(Cl)c(Cl)c(Cl)c1O2  7.4
9. Clc1cc2c(cc1Cl)Oc1c(Cl)c(Cl)c(Cl)c(Cl)c1O2  7.8
10. Clc1c(Cl)c(Cl)c2c(c1Cl)Oc1c(Cl)c(Cl)c(Cl)c(Cl)c1O2  8.2
11. Clc1cc2c(c(Cl)c1Cl)Oc1c(Cl)c(Cl)c(Cl)c(Cl)c1O2  8.2

same assay, conditions: 25 °C

In order of falling solubility:
1. Clc1c(Cl)c(Cl)c2c(c1Cl)Oc1ccccc1O2  1.96 nM (≈ 0.63 ng/mL)
2. Clc1cc2c(cc1Cl)Oc1cc(Cl)c(Cl)cc1O2  0.621 nM (≈ 0.2 ng/mL)
